# Values of other authors in patent US9125929B2, “Trauma therapy” (Hibernation Therapeutics, A KF LLC, priority 2006, dated 2015).
# Legend:
# human NK(1) receptor = human NK(1) receptor (Homo sapiens, UniProt P25103); conditions: read-out: K(i) for the human NK(1) receptor
# NK(2) receptor = target: T1, NK(2) receptor (Homo sapiens, UniProt P21452); conditions: NK(1) over NK(2)
# T1 sequence (P21452 1-398): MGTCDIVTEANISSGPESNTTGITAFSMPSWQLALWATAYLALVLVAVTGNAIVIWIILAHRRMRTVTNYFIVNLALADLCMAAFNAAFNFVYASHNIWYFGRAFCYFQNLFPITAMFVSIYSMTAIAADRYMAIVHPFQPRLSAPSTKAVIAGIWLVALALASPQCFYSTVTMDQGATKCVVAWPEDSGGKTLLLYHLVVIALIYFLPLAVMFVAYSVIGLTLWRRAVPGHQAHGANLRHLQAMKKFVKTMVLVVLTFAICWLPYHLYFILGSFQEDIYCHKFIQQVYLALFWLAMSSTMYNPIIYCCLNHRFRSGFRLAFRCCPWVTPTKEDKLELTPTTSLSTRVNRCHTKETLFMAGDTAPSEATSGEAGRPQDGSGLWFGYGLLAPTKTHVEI
# NK(3) receptor = target: T2, NK(3) receptor (Homo sapiens, UniProt P29371); conditions: NK(1) over NK(3)
# T2 sequence (P29371 1-465): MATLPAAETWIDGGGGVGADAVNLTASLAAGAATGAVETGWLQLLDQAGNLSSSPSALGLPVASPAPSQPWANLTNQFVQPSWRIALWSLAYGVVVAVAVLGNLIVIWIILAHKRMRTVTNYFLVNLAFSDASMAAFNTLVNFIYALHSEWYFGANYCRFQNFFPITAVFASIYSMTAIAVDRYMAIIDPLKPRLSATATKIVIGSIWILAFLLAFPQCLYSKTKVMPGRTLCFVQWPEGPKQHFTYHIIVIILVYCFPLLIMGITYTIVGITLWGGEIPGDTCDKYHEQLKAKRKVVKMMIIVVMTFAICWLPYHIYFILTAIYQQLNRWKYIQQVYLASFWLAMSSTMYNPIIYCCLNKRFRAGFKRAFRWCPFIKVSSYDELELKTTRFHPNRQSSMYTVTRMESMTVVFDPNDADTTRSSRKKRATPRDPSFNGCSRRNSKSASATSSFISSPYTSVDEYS
# [1] = 400 mg daily tablets
# [2] = orally and/or intravenous, 10, 25, 50 and 100 mg/kg body weight
# human NK(1) receptor, sequence (P25103 whole entry): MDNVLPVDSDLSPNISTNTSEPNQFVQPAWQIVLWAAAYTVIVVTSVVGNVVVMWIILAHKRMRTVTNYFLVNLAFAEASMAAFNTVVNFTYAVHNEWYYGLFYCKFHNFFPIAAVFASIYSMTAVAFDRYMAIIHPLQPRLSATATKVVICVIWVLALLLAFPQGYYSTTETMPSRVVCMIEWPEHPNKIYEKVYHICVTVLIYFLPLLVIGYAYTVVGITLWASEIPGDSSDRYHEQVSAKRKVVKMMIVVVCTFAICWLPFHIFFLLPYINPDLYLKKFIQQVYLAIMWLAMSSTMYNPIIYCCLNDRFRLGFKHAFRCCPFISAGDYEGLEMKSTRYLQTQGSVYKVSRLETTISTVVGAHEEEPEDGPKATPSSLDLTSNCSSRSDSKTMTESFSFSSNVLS
smiles,measurement,setting,value
"Cc1cccc(C)c1NC(=O)C[C@H]1CCN(C(=O)c2cc(C(F)(F)F)cc(C(F)(F)F)c2)[C@@H](Cc2ccccc2)C1.O=C(O)C[C@H](O)C(=O)O (relative stereo) [R116301, (2R-trans)-4-[1-[3,5-bis(trifluoromethyl)benzoyl]-2-(phenylmethyl)-4-piperidinyl]-N-(2,6-dimethylphenyl)-1-acetamide(S)-Hydroxybutanedioate]",Ki,human NK(1) receptor,0.45 nM
same,selectivity toward NK(2) receptor,NK(2) receptor,over 200 fold
same,selectivity toward NK(3) receptor,NK(3) receptor,over 200 fold
OCCN(CCO)c1nc(N2CCCCC2)c2nc(N(CCO)CCO)nc(N3CCCCC3)c2n1 [Dipyridamole],plasma level,[1],about 0.4 microgram/ml
same,plasma level (concentration),[1],~800 nM
"NC(=O)c1ncn([C@@H]2O[C@H](CO)[C@@H](O)[C@H]2O)c1N [Acadesine, 5-amino-4-imidazole carboxamide ribonucleoside]",safety in humans,[2],safe
"Nc1ncnc2c1ncn2[C@@H]1O[C@H](CO)[C@@H](O)[C@H]1O [adenosine, 6-amino-9-β-D-ribofuranosyl-9H-purine]",half life in the blood,,about 10 seconds
